The source of these data is patent US4709083A, “Method of making boron analogues” (The United States of America as represented by the …, priority 1986, dated 1987).

In one test the test system is serum cholesterol. Briefly: hyperlipidemic screen: serum cholesterol levels (modified Liebermann-Burchard reaction). The conditions noted are these: male CF1 mice, intraperitoneal, 20 mg/kg day, 1% aqueous carboxymethylcellulose. The class given is in vivo. On the procedure: (§1) A hyperlipidemic screen was performed using the compounds of Examples 2 and 4. The compounds were suspended in 1% aqueous carboxymethylcellulose and adimistered to male CF1 mice intraperitoneally for 16 days at a dosage of 20 mg/kg day.
(§2) On days 9 and 16 blood was obtained by tail vein bleeding and the serum separated by centrifugation for 3 min.
(§3) Serum cholesterol levels were determined using a modification of the Liebermann-Burchard reaction, see Ness et al, Clin. Chim. Acta, v. 10, p. 229, (1964). Serum triglicerides were determined using the Fisher, Hycel Triglyceride Test Kit, a commercially available kit.

A further test has as its system serum triglyceride. Put plainly: hyperlipidemic screen: serum triglycerides (Fisher, Hycel Triglyceride Test Kit). The test is classed as in vivo. Conditions: male CF1 mice, intraperitoneal, 20 mg/kg day, 1% aqueous carboxymethylcellulose. As to the method: as §1, §2, §3

As for `[BH3-][N+](C)(C)CCOC(=O)c1ccccc1` [Example 4, 2-(benzoyloxyethyl)dimethylamine-Borane], in the test with serum cholesterol, the “Serum cholesterol inhibition %, 9th Day” value is on record as 31% and the “Serum cholesterol inhibition %, 16th Day” value turned out to be 37%. Also, in the test on serum triglyceride, the “Triglyceride inhibition %, 16th Day” value worked out at 31%.
Regarding `[BH3-][N+](C)(C)CCOC(C)=O` [Example 2, 2 (Acetoxyethyl)dimethylamine-borane], in the test with serum cholesterol, the “Serum cholesterol inhibition %, 9th Day” value came out at 28% and the “Serum cholesterol inhibition %, 16th Day” value is recorded as 41%. The “Triglyceride inhibition %, 16th Day” value in the test with serum triglyceride came to 32%.
